The values that follow come from US20080146612A1, “Novel Biaromatic Compounds, Inhibitors of the P2X7-Receptor” (ASTRAZENECA AB, priority 2005, published 2008).

Molecules are shown by their SMILES.

For orientation: melting point means the temperature of the solid-liquid transition. Broadly, the IC50 is the concentration needed to halve the response being measured.

Tested on in the first data set: not given
Test: not given
Details: not given
Take `C[C@H](CNC(=O)c1cc(-c2ccccc2C(=O)O)ccc1Cl)c1ccccc1` [Example 4, 4′-Chloro-3′-[[[(2S)-2-phenylpropyl]amino]carbonyl]-[1,1′-biphenyl]-2-carboxylic acid]: the melting point was in the range of 160 to 162 °C.
In turn, `O=C(NCC1CCCCCC1)c1cc(-c2ccc(Cl)c(C(=O)O)n2)ccc1Cl` [Example 23, 3-Chloro-6-[4-chloro-3-[[(cycloheptylmethyl)amino]carbonyl]phenyl]-2-pyridinecarboxylic acid] showed a melting point of 189 to 190 °C.
Still for that read-out and setting: under `O=C(NCCC1CCCCC1)c1cc(-c2cccnc2C(=O)O)ccc1Cl` [Example 11, 3-[4-Chloro-3-[[(2-cyclohexylethyl)amino]carbonyl]phenyl]-2-pyridinecarboxylic acid] stands 104 to 107 °C; under `O=C(NCC1(CO)CCCCCC1)c1cc(-c2ccccc2C(=O)O)ccc1Cl` [Example 14, 4′-Chloro-3′-[[[[1-(hydroxymethyl)cycloheptyl]methyl]amino]carbonyl]-[1,1′-biphenyl]-2-carboxylic acid], 175 to 177 °C; under `O=C(NCC1(O)CCCCC1)c1cc(-c2ccccc2C(=O)O)ccc1Cl` [Example 7, 4′-Chloro-3′-[[[(1-hydroxycyclohexyl)methyl]amino]carbonyl]-[1,1′-biphenyl]-2-carboxylic acid], 202 to 204 °C.
`O=C(NCC1CCCCCC1)c1cc(-c2ccccc2C(=O)O)ccc1Cl` [Example 6, 4′-Chloro-3′-[[(cycloheptylmethyl)amino]carbonyl]-[1,1′-biphenyl]-2-carboxylic acid]: the melting point fell in the range of 201 to 203 °C.
For `CC1(CNC(=O)c2cc(-c3ccccc3C(=O)O)ccc2Cl)CCCCCC1` [Example 13, 4′-Chloro-3′-[[[(1-methylcycloheptyl)methyl]amino]carbonyl]-[1,1′-biphenyl]-2-carboxylic acid], the melting point was in the range of 180 to 183 °C.
The same measure, in the same setting: with `O=C(NCCc1ccccc1Cl)c1cc(-c2ccccc2C(=O)O)ccc1Cl` [Example 1, 4′-Chloro-3′-[[[2-(2-chlorophenyl)ethyl]amino]carbonyl]-[1,1′-biphenyl]-2-carboxylic acid] the figure was 136 to 140 °C (dec.); with `O=C(NCCC1CCCCC1)c1cc(-c2cccnc2N2CCC(C(=O)O)CC2)ccc1Cl` [Example 25, 1-[3-[4-Chloro-3-[[(2-cyclohexylethyl)amino]carbonyl]phenyl]-2-pyridinyl]-4-piperidinecarboxylic acid], 116 to 120 °C; with `C[C@@H](NC(=O)c1cc(-c2ccccc2C(=O)O)ccc1Cl)C1CCCCC1` [Example 12, 4′-Chloro-3′-[[[(1R)-1-cyclohexylethyl]amino]carbonyl]-[1,1′-biphenyl]-2-carboxylic acid], 139 to 141 °C.
Still for that read-out and setting: with `Cc1ccc(-c2ccccc2C(=O)O)cc1C(=O)NCC1CCCCCC1` [Example 16, 3′-[[(Cycloheptylmethyl)amino]carbonyl]-4′-methyl-[1,1′-biphenyl]-2-carboxylic acid] the figure was 188 to 189 °C; with `O=C(NCC1(O)CCCCCC1)c1cc(-c2ccc(Cl)c(C(=O)O)n2)ccc1Cl` [Example 24, 3-Chloro-6-[4-chloro-3-[[[(1-hydroxycycloheptyl)methyl]amino]carbonyl]phenyl]-2-pyridinecarboxylic acid], 146 to 149 °C.
Same read-out and setting: with `O=C(NC[C@@H]1CCCCC[C@@H]1O)c1cc(-c2ccccc2C(=O)O)ccc1Cl` (relative stereo) [Example 8, 4′-Chloro-3′-[[[[cis-2-hydroxycycloheptyl]methyl]amino]carbonyl]-[1,1′-biphenyl]-2-carboxylic acid] the figure was 193 to 195 °C.
For `O=C(NCC1CCCCCC1)c1cc(-c2ncc(Cl)cc2C(=O)O)ccc1Cl` [Example 20, 5-Chloro-2-[4-chloro-3-[[(cycloheptylmethyl)amino]carbonyl]phenyl]-3-pyridinecarboxylic acid], the melting point was in the range of 176 to 179 °C.
Same read-out and setting: with `O=C(NCCC1CCCCC1)c1cc(-c2ccccc2C(=O)O)ccc1Cl` [Example 9, 4′-Chloro-3′-[[(2-cyclohexylethyl)amino]carbonyl]-[1,1′-biphenyl]-2-carboxylic acid] the figure was 191 to 193 °C; with `O=C(NCCC1CCCCC1)c1cc(-c2ccc(Cl)c(C(=O)O)n2)ccc1Cl` [Example 22, 3-Chloro-6-[4-chloro-3-[[(2-cyclohexylethyl)amino]carbonyl]phenyl]-2-pyridinecarboxylic acid], 189 to 190 °C.
On the same count and under the same terms, under `O=C(NCC1(O)CCCCCC1)c1cc(-c2cccnc2N2CCC(C(=O)O)CC2)ccc1Cl` [Example 27, 1-[3-[4-Chloro-3-[[[(1-hydroxycycloheptyl)methyl]amino]carbonyl]phenyl]-2-pyridinyl]-4-piperidinecarboxylic acid] stands 117 to 119 °C; under `O=C(NCCC1CCCCC1)c1cc(-c2ncc(Cl)cc2C(=O)O)ccc1Cl` [Example 19, 5-Chloro-2-[4-chloro-3-[[(2-cyclohexylethyl)amino]carbonyl]phenyl]-3-pyridinecarboxylic acid], 208 to 211 °C.
For `O=C(NCC1CCCCCC1)c1cc(-c2cccnc2C(=O)O)ccc1Cl` [Example 10, 3-[4-Chloro-3-[[(cycloheptylmethyl)amino]carbonyl]phenyl]-2-pyridinecarboxylic acid], the melting point fell in the range of 166 to 168 °C.
On the same count and under the same terms, with `O=C(NCC1CCCCC1)c1cc(-c2ccccc2C(=O)O)ccc1Cl` [Example 3, 4′-Chloro-3′-[[(cyclohexylmethyl)amino]carbonyl]-[1,1′-biphenyl]-2-carboxylic acid] the figure was 212 to 214 °C.
Same read-out and setting: with `O=C(NCC1(O)CCCCCC1)c1cc(-c2ncc(Cl)cc2C(=O)O)ccc1Cl` [Example 21, 5-Chloro-2-[4-chloro-3-[[[(1-hydroxycycloheptyl)methyl]amino]carbonyl]phenyl]-3-pyridinecarboxylic acid] the figure was 201 to 204 °C.
Same read-out and setting: with `CC1(C)[C@H]2CC[C@@H](CNC(=O)c3cc(-c4ccccc4C(=O)O)ccc3Cl)[C@@H]1C2` [Example 5, 4′-Chloro-3′-[[[[(1S,2R,5S)-6,6-dimethylbicyclo[3.1.1]hept-2-yl]methyl]amino]car-bonyl]-[1,1′-biphenyl]-2-carboxylic acid] the figure was 170 to 172 °C; with `Cc1ccc(-c2ccc(Cl)c(C(=O)O)n2)cc1C(=O)NCC1CCCCCC1` [Example 18, 3-Chloro-6-[3-[[(cycloheptylmethyl)amino]carbonyl]-4-methylphenyl]-2-pyridinecarboxylic acid], 177 to 178 °C.

For a further data set, the target named is T1, P2X7 receptor (Homo sapiens, UniProt Q99572).
T1 construct: 200 μl of a suspension of THP-1 cells; endogenous in cells; host or cells: THP-1 cells
T1 sequence (Q99572 1-595): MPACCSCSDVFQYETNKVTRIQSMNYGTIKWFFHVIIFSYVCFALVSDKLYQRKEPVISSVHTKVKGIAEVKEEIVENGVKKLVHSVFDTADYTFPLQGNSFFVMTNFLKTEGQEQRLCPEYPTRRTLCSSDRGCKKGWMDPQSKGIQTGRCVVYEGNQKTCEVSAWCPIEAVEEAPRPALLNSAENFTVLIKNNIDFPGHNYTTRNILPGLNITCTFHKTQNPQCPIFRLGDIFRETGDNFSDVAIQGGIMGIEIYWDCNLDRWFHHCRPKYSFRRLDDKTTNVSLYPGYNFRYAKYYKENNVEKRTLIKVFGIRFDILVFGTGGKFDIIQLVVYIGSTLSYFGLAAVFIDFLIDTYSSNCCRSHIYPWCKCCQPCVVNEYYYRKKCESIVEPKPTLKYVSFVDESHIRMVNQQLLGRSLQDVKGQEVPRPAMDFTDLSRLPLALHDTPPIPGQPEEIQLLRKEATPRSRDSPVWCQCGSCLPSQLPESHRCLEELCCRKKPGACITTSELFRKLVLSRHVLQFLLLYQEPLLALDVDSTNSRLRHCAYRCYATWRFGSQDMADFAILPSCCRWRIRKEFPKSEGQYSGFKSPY
In words: P2X7 receptor antagonist test: bbATP-induced ethidium bromide fluorescence in THP-1 cells. The format is cell-based. Particulars: negative logarithm of the concentration of test compound necessary to reduce the bbATP agonist activity by 50%, 10^-5M bbATP solution, 37° C. for one hour. The source says:
Certain compounds such as benzoylbenzoyl adenosine triphosphate (bbATP) are known to be agonists of the P2X7 receptor, effecting the formation of pores in the plasma membrane (Drug Development Research (1996), 37(3), p. 126). Consequently, when the receptor is activated using bbATP in the presence of ethidium bromide (a fluorescent DNA probe), an increase in the fluorescence of intracellular DNA-bound ethidium bromide is observed. The increase in fluorescence can be used as a measure of P2X7 receptor activation and therefore to quantif the effect of a compound on the P2X7 receptor.
In this manner, each of the title compounds of the Examples was tested for antagonist activity at the P2X7 receptor. Thus, the test was performed in 96-well flat bottomed microtitre plates, the wells being filled with 250 μl of test solution comprising 200 μl of a suspension of THP-1 cells (2.5×10^6 cells/ml) containing 10^−4M ethidium bromide, 25 μl of a high potassium buffer solution containing 10^−5M bbATP, and 25 μl of the high potassium buffer solution containing concentrations of test compound typically from 30 μM-0.001 μM. The plate was covered with a plastics sheet and incubated at 37° C. for one hour. The plate was then read in a Perkin-Elmer fluorescent plate reader, excitation 520 nm, emission 595 nm, slit widths: Ex 15 nm, Em 20 nm. […]
In turn, `O=C(NCC1CCCCCC1)c1cc(-c2cccnc2N2CCC(C(=O)O)CC2)ccc1Cl` [Example 26, 1-[3-[4-Chloro-3-[[(cycloheptylmethyl)amino]carbonyl]phenyl]-2-pyridinyl]-4-piperidinecarboxylic acid] showed an IC50 of 100 nM.
On the same count and under the same terms, under `O=C(NCC1(O)CCCCCC1)c1cc(-c2ccccc2C(=O)O)ccc1Cl` [Example 2, 4′-Chloro-3′-[[[(1-hydroxycycloheptyl)methyl]amino]carbonyl]-[1,1′-biphenyl]-2-carboxylic acid] stands 63.1 nM.
